These results are taken from article PMC8524670 (Pharmacology Research & Perspectives, 2021).

Data set [1] deals with T1, human BCRP (Homo sapiens, UniProt Q9UNQ0).
T1 sequence (Q9UNQ0 1-655): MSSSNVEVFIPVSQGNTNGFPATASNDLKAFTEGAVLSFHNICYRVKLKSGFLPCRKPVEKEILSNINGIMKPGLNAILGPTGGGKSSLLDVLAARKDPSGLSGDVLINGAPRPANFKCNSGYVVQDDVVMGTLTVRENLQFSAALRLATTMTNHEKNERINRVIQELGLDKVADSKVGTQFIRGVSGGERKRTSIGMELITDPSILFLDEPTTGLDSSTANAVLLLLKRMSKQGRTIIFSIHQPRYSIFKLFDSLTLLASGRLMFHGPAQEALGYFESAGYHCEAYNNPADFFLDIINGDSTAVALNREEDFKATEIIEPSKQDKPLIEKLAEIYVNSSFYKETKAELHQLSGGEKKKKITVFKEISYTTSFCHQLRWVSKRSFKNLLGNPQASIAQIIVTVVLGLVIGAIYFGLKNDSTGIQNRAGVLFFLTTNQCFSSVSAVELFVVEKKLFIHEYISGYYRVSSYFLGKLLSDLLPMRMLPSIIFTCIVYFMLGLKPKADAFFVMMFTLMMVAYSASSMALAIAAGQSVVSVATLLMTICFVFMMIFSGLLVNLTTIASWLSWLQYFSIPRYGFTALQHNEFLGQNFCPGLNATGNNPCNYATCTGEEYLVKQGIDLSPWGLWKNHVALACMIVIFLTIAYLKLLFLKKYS
Description: BCRP transportation in inside-out vesicles. The data set is classed as in vitro ADME. The settings on record: uptake ratio ≥2-fold indicates substrate.

For data set [2], the target named is T2, OCT2 (Homo sapiens, UniProt O15244).
T2 sequence (O15244 1-555): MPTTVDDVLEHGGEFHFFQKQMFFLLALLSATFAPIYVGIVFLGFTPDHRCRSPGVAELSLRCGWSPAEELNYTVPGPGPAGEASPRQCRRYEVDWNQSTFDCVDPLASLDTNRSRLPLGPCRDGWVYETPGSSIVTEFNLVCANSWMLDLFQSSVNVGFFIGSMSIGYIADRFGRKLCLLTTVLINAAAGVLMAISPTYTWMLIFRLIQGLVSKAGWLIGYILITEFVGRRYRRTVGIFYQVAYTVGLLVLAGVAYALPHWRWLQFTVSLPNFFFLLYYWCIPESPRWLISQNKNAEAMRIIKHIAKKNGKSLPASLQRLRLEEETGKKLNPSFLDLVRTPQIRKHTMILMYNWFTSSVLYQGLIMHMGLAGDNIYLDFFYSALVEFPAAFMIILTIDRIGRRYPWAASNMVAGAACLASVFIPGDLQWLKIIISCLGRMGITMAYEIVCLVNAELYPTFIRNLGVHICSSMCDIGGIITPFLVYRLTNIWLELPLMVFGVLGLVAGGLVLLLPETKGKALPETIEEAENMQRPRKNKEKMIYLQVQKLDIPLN
Description: SLC transportation assay in HEK293 cells. The data set is classed as in vitro ADME. The settings on record: uptake ratios <2 at 0.1, 0.3, 5 µM.

Data set [3] deals with T2, OCT2. Nature of the data set: SLC inhibition assay in HEK293 cells. The data set is classed as in vitro ADME.
A short description of data set [4]: In vitro metabolism in liver microsomes. The data set is classed as in vitro ADME. The settings on record: 10 μM, 60-min incubation with NADPH and UDPGA; 11 metabolites (M1–M11).
The test system of data set [5] is CYP3A4.
Data set [6] addresses P-gp (Homo sapiens, UniProt P08183). The settings on record: coadministration of zanubrutinib; cited from earlier work.
Data set [7] deals with CYP2C9 (Homo sapiens, UniProt P11712). Description: CYP reversible inhibition in HLMs. The settings on record: diclofenac.
Chain of CYP2C9 (P11712 whole entry): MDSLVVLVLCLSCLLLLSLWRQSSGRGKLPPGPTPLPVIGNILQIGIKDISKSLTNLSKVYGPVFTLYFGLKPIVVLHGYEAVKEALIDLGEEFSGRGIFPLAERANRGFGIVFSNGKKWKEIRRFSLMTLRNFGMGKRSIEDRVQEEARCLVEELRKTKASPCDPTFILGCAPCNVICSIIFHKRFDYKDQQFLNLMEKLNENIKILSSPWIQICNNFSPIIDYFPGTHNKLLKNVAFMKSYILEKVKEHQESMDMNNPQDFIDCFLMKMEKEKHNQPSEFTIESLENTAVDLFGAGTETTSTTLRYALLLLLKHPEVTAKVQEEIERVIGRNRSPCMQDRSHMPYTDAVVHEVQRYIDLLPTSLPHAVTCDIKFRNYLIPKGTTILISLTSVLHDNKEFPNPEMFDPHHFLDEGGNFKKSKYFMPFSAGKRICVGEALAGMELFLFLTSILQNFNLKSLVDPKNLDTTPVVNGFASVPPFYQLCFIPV
Data set [8] has as its target CYP2C19 (Homo sapiens, UniProt P33261). Nature of the data set: Time-dependent CYP inhibition in HLMs. The settings on record: 10 µM zanubrutinib, 30 min pre-incubation with HLMs and NADPH.
For data set [9], the target named is T3, OAT1 (Homo sapiens, UniProt Q4U2R8).
T3 sequence (Q4U2R8 1-563): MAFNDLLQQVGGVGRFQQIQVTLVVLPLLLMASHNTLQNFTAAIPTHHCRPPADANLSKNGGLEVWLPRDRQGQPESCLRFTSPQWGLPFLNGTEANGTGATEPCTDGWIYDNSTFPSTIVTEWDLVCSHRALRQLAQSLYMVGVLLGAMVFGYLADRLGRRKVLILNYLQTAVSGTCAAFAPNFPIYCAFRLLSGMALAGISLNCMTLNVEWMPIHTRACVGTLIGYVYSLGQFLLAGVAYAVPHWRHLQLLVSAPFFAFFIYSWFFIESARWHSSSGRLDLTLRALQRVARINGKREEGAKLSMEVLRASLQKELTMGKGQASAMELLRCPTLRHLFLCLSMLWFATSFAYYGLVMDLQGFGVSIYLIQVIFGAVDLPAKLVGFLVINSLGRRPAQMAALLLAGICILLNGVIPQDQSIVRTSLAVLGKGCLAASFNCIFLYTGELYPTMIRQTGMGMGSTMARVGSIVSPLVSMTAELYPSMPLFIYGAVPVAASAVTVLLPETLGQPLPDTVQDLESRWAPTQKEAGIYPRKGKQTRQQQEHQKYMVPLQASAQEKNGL
Nature of the data set: SLC transportation assay in HEK293 cells. The settings on record: uptake ratios <2 at 0.1, 0.3, 5 µM.

A short description of data set [10]: CYP phenotyping in HLMs with chemical inhibitors. The settings on record: 1 μM.
[11] abbreviates: human, HEK293 cells overexpressing OCT2 (and MOCK cells), probe metformin.

Chain of CYP2C19 (P33261 whole entry): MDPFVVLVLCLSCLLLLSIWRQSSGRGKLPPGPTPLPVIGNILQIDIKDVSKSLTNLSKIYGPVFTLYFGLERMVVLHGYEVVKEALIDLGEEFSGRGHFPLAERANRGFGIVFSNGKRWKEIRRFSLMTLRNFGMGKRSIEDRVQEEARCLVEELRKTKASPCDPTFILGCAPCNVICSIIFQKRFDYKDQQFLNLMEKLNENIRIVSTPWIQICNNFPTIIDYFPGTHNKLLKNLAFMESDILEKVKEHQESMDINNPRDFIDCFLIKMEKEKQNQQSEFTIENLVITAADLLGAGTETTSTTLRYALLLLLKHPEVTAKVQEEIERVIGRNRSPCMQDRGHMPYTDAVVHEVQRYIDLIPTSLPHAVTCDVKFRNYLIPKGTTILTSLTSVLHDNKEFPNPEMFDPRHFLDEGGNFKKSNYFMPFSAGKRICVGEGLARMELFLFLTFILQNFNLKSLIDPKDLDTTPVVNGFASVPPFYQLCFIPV
Chain of P-gp (P08183 whole entry): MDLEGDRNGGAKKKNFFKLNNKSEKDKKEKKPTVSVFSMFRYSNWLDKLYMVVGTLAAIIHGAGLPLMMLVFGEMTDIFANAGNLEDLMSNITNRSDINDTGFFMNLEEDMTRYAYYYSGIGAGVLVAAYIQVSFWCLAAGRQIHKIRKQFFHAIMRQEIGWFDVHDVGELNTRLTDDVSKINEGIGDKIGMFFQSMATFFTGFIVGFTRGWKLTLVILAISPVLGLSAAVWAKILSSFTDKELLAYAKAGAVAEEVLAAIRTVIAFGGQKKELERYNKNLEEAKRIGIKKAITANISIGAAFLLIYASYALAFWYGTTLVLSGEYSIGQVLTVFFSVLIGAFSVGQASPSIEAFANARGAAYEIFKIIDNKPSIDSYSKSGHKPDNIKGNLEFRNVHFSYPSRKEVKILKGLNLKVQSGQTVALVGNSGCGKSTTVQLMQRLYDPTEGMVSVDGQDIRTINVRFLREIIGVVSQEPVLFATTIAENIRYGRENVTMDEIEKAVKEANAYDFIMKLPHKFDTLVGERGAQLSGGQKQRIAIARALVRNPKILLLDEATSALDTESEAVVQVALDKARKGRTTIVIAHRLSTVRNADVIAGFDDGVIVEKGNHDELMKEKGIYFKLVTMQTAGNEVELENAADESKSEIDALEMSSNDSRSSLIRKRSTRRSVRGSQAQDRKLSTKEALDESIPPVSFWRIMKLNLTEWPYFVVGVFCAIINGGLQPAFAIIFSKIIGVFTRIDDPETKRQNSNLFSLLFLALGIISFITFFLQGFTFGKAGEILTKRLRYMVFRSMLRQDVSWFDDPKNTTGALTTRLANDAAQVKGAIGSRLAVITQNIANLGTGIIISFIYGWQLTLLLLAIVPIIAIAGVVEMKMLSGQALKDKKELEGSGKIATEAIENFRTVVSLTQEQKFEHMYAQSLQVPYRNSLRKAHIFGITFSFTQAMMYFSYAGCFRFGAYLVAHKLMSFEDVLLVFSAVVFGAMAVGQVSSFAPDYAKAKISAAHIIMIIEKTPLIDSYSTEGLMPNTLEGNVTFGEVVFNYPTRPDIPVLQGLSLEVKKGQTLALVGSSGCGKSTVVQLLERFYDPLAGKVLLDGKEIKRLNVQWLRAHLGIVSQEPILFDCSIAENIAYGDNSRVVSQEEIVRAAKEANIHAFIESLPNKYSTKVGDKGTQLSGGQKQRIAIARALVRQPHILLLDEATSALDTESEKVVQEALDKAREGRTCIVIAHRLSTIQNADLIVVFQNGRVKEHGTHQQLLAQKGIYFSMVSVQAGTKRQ

As for `C=CC(=O)N1CCC([C@@H]2CCNc3c(C(N)=O)c(-c4ccc(Oc5ccccc5)cc4)nn32)CC1` [zanubrutinib], in data set [1], the BCRP substrate status result is reported as “unlikely to be a substrate”. Also, in data set [2], the Substrate status entry is given as “unlikely to be a substrate”. The IC50 in [3] is around 4.5 µM. Besides, in [3] (setting [11]), the activity at 0.05 µM amounted to 107 ± 10%, the activity at 0.2 µM was 339 ± 5.7%, the activity at 1 µM was found to be 178 ± 36% and the activity at 5 µM turned out to be 48.4 ± 5.2%. For the same compound, in data set [3] (up to 5.0 μM), the Inhibitor status entry is listed as “marginal inhibitor”. Also, the “Metabolism in liver microsomes” value in [4] is listed as “extensively metabolized”. Also, the “R 3” value in [5] (DDI basic model value for induction) was found to be 0.23. The Cg in [5] (static model term, induction in gut) is on record as 14.6. The compound also gave a Ch in [5] (static model term, induction in liver) of 1.77. In addition, in data set [6], the “Increase of C max of P-gp probe digoxin” value was 34%. In data set [7] (DDI basic model, hepatic), this compound had an R1 of 1.04. The Ah in [7] (static model term, liver inhibition) worked out at 0.96. Also, the “Percent loss of enzymatic activity” value in data set [8] is recorded as −4.58%. Moreover, the Substrate status entry in data set [9] is reported as “unlikely to be a substrate”. In data set [10] (30-min incubation with HLMs + CYP3A inhibitor ketoconazole 1 µM), the Zanubrutinib remaining was 98.9%. The compound further returned a Zanubrutinib remaining in data set [10] (30-min incubation with HLMs, no inhibitor) of 32.8%.
